{
  "source": "patent US5369114A",
  "about": "“Biphenylene branched alkyleneoxy quinolines” (Imperial Chemical Industries PLC, priority 1990, dated 1994)",
  "key": {"[1]": {"target": "T1, AII receptors (cell surface membrane fraction, guinea pig adrenal gland) (Cavia porcellus, UniProt Q9WV26)", "T1 construct": "the source of cell surface membranes is the guinea pig adrenal gland; from tissue; host or cells: guinea pig adrenal gland, cell surface membrane fraction", "T1 sequence (Q9WV26 1-359)": "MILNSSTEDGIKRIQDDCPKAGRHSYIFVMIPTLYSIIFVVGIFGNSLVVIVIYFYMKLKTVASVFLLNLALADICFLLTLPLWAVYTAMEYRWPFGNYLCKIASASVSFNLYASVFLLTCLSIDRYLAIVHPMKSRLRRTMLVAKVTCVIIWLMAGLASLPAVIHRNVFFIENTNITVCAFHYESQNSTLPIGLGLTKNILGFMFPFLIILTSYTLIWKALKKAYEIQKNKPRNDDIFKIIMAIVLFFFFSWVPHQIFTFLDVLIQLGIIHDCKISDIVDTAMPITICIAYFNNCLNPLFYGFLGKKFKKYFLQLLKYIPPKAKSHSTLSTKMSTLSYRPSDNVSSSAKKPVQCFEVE", "test": "Test A: displacement of radiolabelled AII binding from guinea pig adrenal membranes", "details": "in vitro, read-out: IC50 (concentration for 50% displacement of radiolabelled AII binding)", "description": "This in vitro procedure involves the incubation of the test compound initially at a concentration of 100 micromolar (or less) in a buffered mixture containing fixed concentrations of radiolabelled AII and a cell surface membrane fraction prepared from a suitable angiotensin target tissue. In this test, the source of cell surface membranes is the guinea pig adrenal gland which is well known to respond to AII. Interaction of the radiolabelled AII with its receptors (assessed as radiolabel bound to the particulate membrane fraction following removal of unbound radiolabel by a rapid filtration procedure such as is standard in such studies) is antagonized by compounds which also bind to the membrane receptor sites and the degree of antagonism (observed in the test as displacement of membrane-bound radioactivity) is determined readily by comparing the receptor-bound radioactivity in the presence of the test compound at the specified test concentration with a control value determined in the absence of the test compound. Using this procedure compounds showing at least 50% displacement of radiolabelled AII binding at a concentration of 10^-4 M are retested at lower concentrations to determine their potency. […]"}, "[2]": {"tested_on": "angiotensin II-induced pressor responses", "test": "Test C: in vivo antagonism of angiotensin II-induced pressor responses in rats", "details": "iv, rat, i.v. administration", "description": "This in vivo test involves using terminally-anaesthetised or conscious rats in which an arterial catheter has been implanted under anaesthesia for the measurement of changes in blood pressure. The AII antagonistic effects of the test compound following oral or parenteral administration, are assessed against angiotensin II-induced pressor responses. To ensure that the effect is specific, the effect of the test compound on vasopressin-induced pressor responses may also be determined in the same preparation."}},
  "data": [
    {"smiles": "Cc1cc(OC(C)c2ccc(-c3ccccc3-c3nnn[nH]3)cc2)c2ccccc2n1.Cl", "note": "(centres unmarked) [Example 1, 2-methyl-4-[1-(2'-(1H-tetrazol-5-yl)biphenyl-4-yl)ethoxy]quinoline hydrochloride]", "values": [
      {"measurement": "IC50", "setting": "[1]", "result": 40, "unit": "nM"},
      {"measurement": "ED50", "setting": "[2]", "result": 0.18, "unit": "mg/kg"}
    ]}
  ]
}
